Earlier results as cited in patent US20070003642A1 (priority 2002, published 2007).

| Compound | solubility of isoflavones itself (stated as natural solubility, given as explanation) | solubility of daidzin (background statement) |
| --- | --- | --- |
| isoflavones | about 5 mg/L |  |
| O=c1c(-c2ccc(O)cc2)coc2cc(O[C@@H]3O[C@H](CO)[C@@H](O)[C@H](O)[C@H]3O)ccc12 [daidzin] |  | about 3.3 mg/100 ml |
